Laboratory results from patent EP2057188B1 (priority 2006, dated 2008).
Where two headings read alike, the source gives them in different places. Ends that are not written are not given here.

Columns and labels:
[1] = IVGTT duration of action assay, single SC injection; format: in vivo, rat; details: for Duration In The Rat IVGTT Assay: compared with 0601GIP3794 (794), @ -120 min
Experimental: In the typical IVGTT assays the test sample was administered by IV infusion. The IV infusion of sample was initiated at t = -30min and continued through t = 90. IV glucose was given at t = 0. To determine a duration of action using the IVGTT assay, the sample was injected SC as a single injection at one time point indicated (e.g., t = -240, -120, -60 or -30) prior to administration of glucose. IV glucose was given at t = 0.

[2] = for acute food intake: IP at t=0, consumed at t=30, 60, 120 min
[3] = format: in vivo, db/db mice; details: Figure 4; GIP at a 10 fold higher dose
Experimental: Peptide was injected IP at t=0 immediately following baseline sample into 2-hour fasted db/db mice.

[4] = molecular target: cardiomyocyte Gs- and Gi-coupled receptors; assay: cAMP assay in neonatal cardiomyocytes; format: cell-based, rat
Experimental: Activation of cardiomyocyte Gs- and Gi-coupled receptors was determined as a measure of cAMP production.
Neonatal cardiomyocytes were isolated using a commercially available system. […] Sprague Dawley neonatal rats (1-2 days old) were decapitated and the beating heart dissected out into digestion buffer (Cellutron D1 buffer) to dissociate cells. […] The resuspended cells incubated in buffer (Cellutron D3 buffer) for sufficient time to allow optimal dispersion and minimize the need for pipetting to break up clumps. Cells released from the first 2 digestions were discarded since a significant portion of these is red blood cells. Resuspended cells were filtered and allowed to pre-plate for 1 hour on plastic in an incubator in NS media (Cellutron, NJ) in order to remove fibroblasts. After 1 hour of pre-plating, floating cells are removed and the flask rinsed with NS media. The floating cells and the cells in the rinse media were combined and counted. Residual red blood cells, which are smaller that the cardiac myocytes, were not counted.
At Day 1, the NS media was replaced with fresh NS media.
Dose response was determined.
For Gs assays the positive control was 10uM forskolin and negative control was buffer. For Gi assays the positive control was buffer and the negative control was 10uM forskolin.

[5] = Circulatory system effects in conscious rats by telemetry; format: in vivo, Harlan Sprague Dawley rats
[6] = format: in vivo, NIH/Swiss mice
Experimental: Gavage (1.5g/kg) was given at t=0. Sample was taken at t=30 min.

[7] = format: in vivo, rats; parameters: AUC Change in Insulin Pre IVGTT / AUC Change in Insulin Post IVGTT: unit not given beside the values; details: for insulin levels prior to the glucose challenge / insulinotropic response to an intravenous glucose challenge: 100 pmol/kg/min infusion dose in rats
[8] = format: in vivo, NIH/Swiss mice; remark: listed apart in the source
Experimental: In Figure 3A, bars represent mean ± sd, n=6-10. […] Gavage (1.5g/kg) was given at t=0. Sample was taken at t=30 min. […] In Figure 3B, points represent mean ± sem, n=8-15.
(§1) In Figure 13B bars represent mean +/- sd. Peptide was injected IP at t = -5 minutes into 4-hour fasted NIH/Swiss female mice. Gavage (1.5g/kg) was given at t = 0. […] In Figure 17 points represent mean +/- sem. […] Samples were taken at t=60, t=120 and t=180.

[9] = format: in vivo, C57BL/6 mice; details: for body weight change in diet-induced-obese mice: infused via osmotic pump for 2 weeks, high-fat diet
[10] = cited from earlier work; for EC(50): inhibition of gastric emptying, subcutaneous
[11] = molecular target: T1, human GIP receptor (Homo sapiens, UniProt P48546)
[12] = molecular target: human GIP receptor; details: read-out: GIP RBA; GIP receptor binding; RIN where stated; unit nM printed for these values
[13] = molecular target: T1, human GIP receptor; assay: biochemical; details: read-out: %Inh 10nM
[14] = Body composition in DIO mice; format: in vivo, C57BL/6J mice; details: summary of properties
Text: An exemplary assay can be one that involves utilization of a diet-induced obese (DIO) mouse model for metabolic disease. […] During the study, the mice can continue to eat their high-fat diet. Water can be provided ad libitum throughout the study.
DIO mice can be implanted with subcutaneous (SC) intrascapular osmotic pumps to deliver either vehicle (50% dimethylsulfoxide (DMSO) in water) or a compound of the invention. […] Body weights and food intake can be measured over regular intervals throughout the study periods. Respiratory quotient (RQ, defined as CO2 production ÷ O2 consumption) and metabolic rate can be determined using whole-animal indirect calorimetry (Oxymax, Columbus Instruments, Columbus, OH). The mice can be euthanized by isoflurane overdose, and an index of adiposity (bilateral epididymal fat pad weight) measured. Moreover, prior to determination of epididymal weight, body composition (lean mass, fat mass) for each mouse can be analyzed using a Dual Energy X-ray Absorptiometry (DEXA) instrument per manufacturer's instructions (Lunar Piximus, GE Imaging System).

[15] = Glucose in rats (summary table); format: in vivo; details: summary of properties
[16] = Calcium lowering (GIP hybrids, Figure 23B); format: in vivo; details: summary of properties
Experimental: as §1

[17] = Gastric emptying (GIP hybrids, Figure 23A); format: in vivo; details: summary of properties
Experimental: as §1

[18] = insulin levels at 0-30 minutes as AUC, rat
[19] = cAMP production, experiment of Figures 18A/18B
[20] = cardiomyocyte Gs-coupled receptor activation, three independent experiments
[21] = 80 nmol/kg, remote intravenous dosing

T1 sequence (P48546 22-466 limits assumed): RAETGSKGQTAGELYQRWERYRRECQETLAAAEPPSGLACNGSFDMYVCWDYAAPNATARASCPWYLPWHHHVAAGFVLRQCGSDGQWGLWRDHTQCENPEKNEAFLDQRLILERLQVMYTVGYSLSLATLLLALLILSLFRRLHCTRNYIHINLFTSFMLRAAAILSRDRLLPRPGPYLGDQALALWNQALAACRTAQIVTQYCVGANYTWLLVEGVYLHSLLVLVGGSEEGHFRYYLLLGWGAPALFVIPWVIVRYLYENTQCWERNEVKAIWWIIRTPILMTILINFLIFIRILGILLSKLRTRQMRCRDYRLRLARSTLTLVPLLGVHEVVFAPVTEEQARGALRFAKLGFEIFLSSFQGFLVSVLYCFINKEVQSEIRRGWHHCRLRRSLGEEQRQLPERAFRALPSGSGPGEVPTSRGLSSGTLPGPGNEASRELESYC

YaEGTFISDYSIAMDKIHQQDFVNWLLAQKPSSGAPPPS-NH2 [Compound 0601GIP3794]
Duration of action in assay SC inj T = -30 min [1, 18]: 198
Duration of action in assay SC inj T = -60 min [1, 18]: 159
Duration of action in assay SC inj T = -120 min [1, 18]: 204
Duration of action in assay SC inj T= -240 min [1, 18]: 79
acute food intake [2]: did not acutely inhibit food intake
glucose lowering in a diabetic mouse model [3]: pronounced and long-acting effect in lowering glucose
EC(50) [4, 19]: 11.7 nM
EC(50) [4, 20]: 29.8 nM
dP/dt (inotropic effect) [5, 21]: prolonged inotropic effect
heart rate [5, 21]: transient relative to GIP
mean arterial pressure [5, 21]: decreased mean arterial pressure
systolic and diastolic pressures ([5]; 80 nmol/kg, remote intravenous dosing, compared to vehicle or GIP): sustained lowering of systolic and diastolic pressures
Basal Glucose Lowering at 80 nmol/Kg ([6]; AUC180): -9%
Basal Glucose Lowering at 80 nmol/Kg ([6]; AUC240): -7 to-20%
glucose lowering in normal mice ([6]; Figures 3A and 3B, NIH/Swiss mice): significantly more efficacious than full length GIP
glucose lowering profile ([6]; Figures 8A and 8B, IP at t=0, 2-hour fasted NIH/Swiss mice): gradually increasing activity that peaks at t=120min
insulin levels prior to the glucose challenge [7]: significant rise in insulin levels
insulinotropic response to an intravenous glucose challenge [7]: significant enhancement of the insulinotropic response
Standard IVGTT assay IV infusion (100 pmol/min/kg) [7, 18]: 249
AUC Change in Insulin Post IVGTT ([7]; rat, in vivo): 173.1+-29.4
AUC Change in Insulin Pre IVGTT ([7]; rat, in vivo): 28.8 +-10.7
OGTT ED50 ([8]; mouse, in vivo): ~2 nmol/kg
body weight change in diet-induced-obese mice [9]: without a concomitant reduction in body weight

HAEGTFTSDVSSYLEGQAAKEFIAWLVKGR-NH2 [GLP-1]
cAMP activity in cardiomyocytes ([4]; data not shown): very low to no significant activity
EC(50) ([10]; conscious rats ~200g): 1.82 µg
EC(50) ([10]; conscious rats): 2.76 nmol/kg

HGEGTLISDYSIAMDKIHQQDFVNWLLAQKPKKIRYS-NH2 [0601 GIP48 43]
(%Inh 10nm,GIP-LF Assay) [11]: 3(%Inh 10nM)

YSDGTFISDYSIAMDKlHQQDFVNWLLAQKPKKIRYS-NH2 [Compound 0601GIP4386]
IC50 [12]: 156 nM

CC[C@H](C)[C@H](NC(=O)[C@H](CO)NC(=O)[C@H](Cc1ccc(O)cc1)NC(=O)[C@H](CC(=O)O)NC(=O)[C@H](CO)NC(=O)[C@@H](NC(=O)[C@H](Cc1ccccc1)NC(=O)[C@@H](NC(=O)CNC(=O)[C@H](CC(=O)O)NC(=O)[C@H](C)NC(=O)[C@@H](N)Cc1ccc(O)cc1)[C@@H](C)O)[C@@H](C)CC)C(=O)N[C@@H](C)C(=O)N[C@@H](CCSC)C(=O)N[C@@H](CC(=O)O)C(=O)N[C@@H](CCCCN)C(=O)N[C@H](C(=O)N[C@@H](Cc1c[nH]cn1)C(=O)N[C@@H](CCC(N)=O)C(=O)N[C@@H](CCC(N)=O)C(=O)N[C@@H](CC(=O)O)C(=O)N[C@@H](Cc1ccccc1)C(=O)N[C@H](C(=O)N[C@@H](CC(N)=O)C(=O)N[C@@H](Cc1c[nH]c2ccccc12)C(=O)N[C@@H](CC(C)C)C(=O)N[C@@H](CC(C)C)C(=O)N[C@@H](C)C(=O)N[C@@H](CCC(N)=O)C(=O)N[C@@H](CCCCN)C(=O)N1CCC[C@H]1C(=O)N[C@@H](CCCCN)C(=O)N[C@@H](CCCCN)C(=O)N[C@H](C(=O)N[C@@H](CCCNC(=N)N)C(=O)N[C@@H](Cc1ccc(O)cc1)C(=O)N[C@@H](CO)C(N)=O)[C@@H](C)CC)C(C)C)[C@@H](C)CC [Compound 0601GIP4390]
inhibition at 0.01 µM [13]: 90.3%

YAEGTFISDYSIAMDKIHQQDFVNWLLAQKGKKNDWKHNITQ-OH [GIP]
acute food intake [2]: did not acutely inhibit food intake
Food Intake ([2]; summary of properties): not active
Body Comp (mDIO) [14]: No effect on lean mass
glucose lowering in a diabetic mouse model [3]: modest and wanes over time
EC(50) [4, 19]: 9.1 nM
EC(50) [4, 20]: 15.6 nM
Glucose rats [15]: not active
dP/dt (inotropic effect) [5, 21]: positive inotropic effect
heart rate [5, 21]: chronotropic (heart rate elevating) effect
mean arterial pressure [5, 21]: no effect
Heart Rate (rat) ([5]; rat, summary of properties): increases
MAP. (rat) ([5]; rat, summary of properties): not active
inhibition of gastric emptying ([10]; at doses of 100µg): weakly active or inactive
Glucose mice ([6]; mice, summary of properties): weak
insulin levels prior to the glucose challenge [7]: significant rise in insulin levels
insulinotropic response to an intravenous glucose challenge [7]: significant enhancement of the insulinotropic response
OGTT ([8]; summary of properties): decreases
iCa [16]: not active
Gastric Emptying [17]: not active
BWt (mDIO) ([9]; DIO mice, summary of properties): not active
body weight change in diet-induced-obese mice [9]: no effect on body weight change

urocortin: known cardiac myocyte Gs-coupled receptor activator used as a positive control (DNPSLSIDLTFHLLRTLLELARTQSQRERAEQNRIIFDSV; ends and bridges not checked; UniProt P55089 83-122, looked up)
EC(50) [4, 20]: 0.7 nM

CC[C@H](C)[C@H](NC(=O)[C@H](CO)NC(=O)[C@H](Cc1ccc(O)cc1)NC(=O)[C@H](CC(=O)O)NC(=O)[C@H](CO)NC(=O)[C@@H](NC(=O)[C@H](Cc1ccccc1)NC(=O)[C@@H](NC(=O)CNC(=O)[C@H](CCC(=O)O)NC(=O)[C@@H](C)NC(=O)[C@@H](N)Cc1ccc(O)cc1)[C@@H](C)O)[C@@H](C)CC)C(=O)N[C@@H](C)C(=O)N[C@@H](CC(C)C)C(=O)N[C@@H](CC(=O)O)C(=O)N[C@@H](CCCCN)C(=O)N[C@H](C(=O)N[C@@H](Cc1c[nH]cn1)C(=O)N[C@@H](CCC(N)=O)C(=O)N[C@@H](CCC(N)=O)C(=O)N[C@@H](CC(=O)O)C(=O)N[C@@H](Cc1ccccc1)C(=O)N[C@H](C(=O)N[C@@H](CC(N)=O)C(=O)N[C@@H](Cc1c[nH]c2ccccc12)C(=O)N[C@@H](CC(C)C)C(=O)N[C@@H](CC(C)C)C(=O)N[C@@H](C)C(=O)N[C@@H](CCC(N)=O)C(=O)N[C@@H](CCCCN)C(=O)N1CCC[C@H]1C(=O)N[C@@H](CCCCN)C(=O)N[C@@H](CCCCN)C(=O)N[C@H](C(=O)N[C@@H](CCCNC(=N)N)C(=O)N[C@@H](Cc1ccc(O)cc1)C(=O)N[C@@H](CO)C(N)=O)[C@@H](C)CC)C(C)C)[C@@H](C)CC [0601 GIP48 07]
Duration In The Rat IVGTT Assay [1]: < 794 @-120 min
Basal Glucose Lowering at 80 nmol/Kg ([6]; AUC240): -26%, AUC240

CC[C@H](C)[C@H](NC(=O)[C@H](CO)NC(=O)[C@H](Cc1ccc(O)cc1)NC(=O)[C@H](CC(=O)O)NC(=O)[C@H](CO)NC(=O)[C@@H](NC(=O)[C@H](Cc1ccccc1)NC(=O)[C@@H](NC(=O)CNC(=O)[C@H](CCC(=O)O)NC(=O)[C@@H](C)NC(=O)[C@@H](N)Cc1ccc(O)cc1)[C@@H](C)O)[C@@H](C)CC)C(=O)N[C@@H](C)C(=O)N[C@@H](CCSC)C(=O)N[C@@H](CC(=O)O)C(=O)N[C@@H](CCCCN)C(=O)N[C@H](C(=O)N[C@@H](Cc1c[nH]cn1)C(=O)N[C@@H](CCC(N)=O)C(=O)N[C@@H](CCC(N)=O)C(=O)N[C@@H](CC(=O)O)C(=O)N[C@@H](Cc1ccccc1)C(=O)N[C@H](C(=O)N[C@@H](CC(N)=O)C(=O)N[C@@H](Cc1c[nH]c2ccccc12)C(=O)N[C@@H](CC(C)C)C(=O)N[C@@H](CC(C)C)C(=O)N[C@@H](C)C(=O)N[C@@H](CCC(N)=O)C(=O)N[C@@H](CCCCN)C(=O)N1CCC[C@H]1C(=O)N[C@@H](CCCCN)C(=O)N[C@@H](CO)C(=O)N[C@@H](C)C(=O)N[C@@H](CCCNC(=N)N)C(=O)N1CCC[C@H]1C(=O)N[C@@H](CO)C(N)=O)C(C)C)[C@@H](C)CC [0601 GIP48 21]
Duration In The Rat IVGTT Assay [1]: <794@-120 min
Basal Glucose Lowering at 80 nmol/Kg ([6]; AUC240): -5%, AUC240
